Molecules are shown by their SMILES.

In the experiment the target is T1, NMT (Homo sapiens, UniProt P30419).
T1 construct: host or cells: Cos-1
T1 sequence (P30419 1-496): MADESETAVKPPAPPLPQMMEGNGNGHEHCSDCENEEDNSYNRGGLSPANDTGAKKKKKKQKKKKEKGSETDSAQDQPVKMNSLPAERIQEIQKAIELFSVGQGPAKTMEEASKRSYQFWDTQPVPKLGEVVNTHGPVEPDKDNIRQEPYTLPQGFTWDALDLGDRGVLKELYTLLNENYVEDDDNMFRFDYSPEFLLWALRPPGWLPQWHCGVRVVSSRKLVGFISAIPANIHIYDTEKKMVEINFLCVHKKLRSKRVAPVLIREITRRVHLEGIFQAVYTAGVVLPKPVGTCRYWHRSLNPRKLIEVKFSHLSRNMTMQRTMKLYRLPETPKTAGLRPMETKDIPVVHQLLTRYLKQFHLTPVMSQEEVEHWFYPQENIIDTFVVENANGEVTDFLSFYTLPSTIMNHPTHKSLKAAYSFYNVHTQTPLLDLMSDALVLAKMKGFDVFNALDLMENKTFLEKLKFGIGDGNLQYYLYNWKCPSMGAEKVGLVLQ
In words: Membrane targeting of V5-tagged SHOC2^S2G in Cos-1 cells treated with an NMT inhibitor (confocal laser scanning microscopy). It is filed as cell-based, African green monkey. The protocol: FIG. 8. Myristoylation is required for membrane targeting of the SHOC2^S2G mutant. […] Confocal laser scanning microscopy was performed using anti-V5 monoclonal antibody, followed by Alexa Fluor-594 goat anti-mouse antibody (red), while actin cytoskeleton was detected by Alexa Fluor 488-phalloidin (green). Nuclei are visualized by DAPI staining (blue). Co-localization areas were detected in yellow. Images represent single optical sections representative of >50 transfected cells observed in each experiment. Bars indicate 20 μm.
N-myristoylation facilitates anchoring of proteins to intracellular membranes. To explore whether it conferred membrane targeting to mutant SHOC2, the subcellular localization of tagged SHOC2 proteins was analyzed in Cos-1 cells (FIG. 2b and FIG. 6). Confocal laser microscopy analysis documented that SHOC2^wt was uniformly distributed in the cytoplasm and nucleus in starved cells but was restricted to the nucleus following EGF stimulation, implying an unexpected role for this protein in signal transduction. […]
In silico analysis of protein N-myristoylation was performed using Myristoylator (http://www.expasy.org/tools/myristoylator/), TermiNator (http://www.isv.cnrs-gif.fr/terminator3/index.html) and NMT (http.//mendel.imp.ac.at/sat/myristate/index.html) software. […] N-myristoylation was evaluated by [^3H]myristic acid (30 μCi/ml) incorporation as described elsewhere^26. […]

Consider `CCCCCCCCCCCCC(O)C(=O)O` (centres unmarked) [2-hydroxymyristic acid], for which the “membrane targeting of V5-tagged SHOC2^S2G” value (Cos-1 cells treated with 200 μM (middle) and 300 μM (bottom), compared with untreated cells) is “progressively lost”. For the same molecule, the “SHOC2^S2G's membrane localization” value (Cos-1 cells, treatment at varying doses (FIG. 8)) is “reduced or abolished”.

The record behind these values is US8808992B2, “SHOC2 mutations causing noonan-like syndrome with loose anagen hair” (Icahn School of Medicine at Mount Sinai, priority 2009, dated 2014).
